Test results from BindingDB's records for doi:10.1021/jm00083a023 (Warner-Lambert, 1992).

Experiment: Compound was evaluated for the inhibition of serum-opsonized zymosan stimulated myeloperoxidase release from human neutrophil

Question: With `COc1ccc2sc(C(=O)Nc3nnn[nH]3)c(OC(C)C)c2c1` as the compound, how does the IC50 read?
Answer: 7.5 µM
